Counter-ions that a name gives are not always drawn. Like-named read-outs stand apart in the source and are kept apart here.
Key:
S. faecalis C1 [1] = test: In vivo antibacterial activity (PD50); settings: Enterococcus faecalis, C1, sc
E. cloacae 4633 = test: In vivo activity alone and in combination (PD50, FIC); settings: Enterobacter cloacae, 4633; sc; alone; read-out: PD50 (alone)
Method: (§1) In Tables 9-14, the results of the in vivo activity against certain microorganisms of compounds I, M and N as given. […] The results in these Tables and the PD50 's were determined by the procedure set forth on page 160 in Beskid et al., Antimicrobial Agents and Chemotherapy, Vol. 20, No. 2 pp. 159-167 (Aug. 1981) for "in vivo studies".
(§2) In the Tables, the fractional inhibitory concentration index (FIC) for synergistic combination of a compound of this invention (X) with known antibiotic compound (Y) is determined by the following formula:
(§3) FIC=(PD50 (X combination)/PD50 (X alone)+(PD50 (Y
(§4) combination)/PD50 (Y alone)
(§5) An FIC of ≤0.60 is indicative of synergy. The synergy rating in the Tables is as follows:
(§6) In the combination, the parts are parts by weight, i.e. 10 to 1 is 10 parts by weight to 1 part by weight.

K. pneumoniae 503-990A = test: as above; settings: Klebsiella pneumoniae, 503990A, sc, alone
Method: as §1, §2, §3, §4, §5, §6

E. coli 257 [2] = test: In vivo antibacterial activity (PD50); settings: Escherichia coli, 257, sc
S. aureus Smith = test: In vivo antibacterial activity (PD50); settings: Staphylococcus aureus, sc
S. marcescens S714 = test: In vitro antibacterial activity (MIC); format: cell-based; settings: Serratia marcescens, S714, S. marcescens S714; read-out: MIC
Procedure, shortened: (§7)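 Mueller-Hinton broth carries the compound at 128–0.008 μg/ml; diluted drug may be used fresh or stored frozen at -10° to -70° C before use. Wells are seeded with a 10^-2 dilution of overnight culture and incubated overnight at 37° C.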

S. marcescens S3 = test: In vitro antibacterial activity (MIC); format: cell-based; settings: Serratia marcescens; S. marcescens S3; read-out: MIC
Procedure, shortened: as §7

P. mirabilis 190 = test: In vitro antibacterial activity (MIC); format: cell-based; settings: Proteus mirabilis, 190, P. mirabilis 190; read-out: MIC
Procedure, shortened: as §7

E. coli 387-1 = test: In vitro antibacterial activity (MIC); format: cell-based; settings: Escherichia coli, 3871, E. coli 387-1; read-out: MIC
Procedure, shortened: as §7

K. pneumoniae 8357 = test: In vitro antibacterial activity (MIC); format: cell-based; settings: Klebsiella pneumoniae, 8357, K. pneumoniae 8357; read-out: MIC
Procedure, shortened: as §7

P. aeruginosa 5700 = test: In vitro antibacterial activity (MIC); format: cell-based; settings: Pseudomonas aeruginosa, 5700, P. aeruginosa 5700; read-out: MIC
Procedure, shortened: as §7

K. pneumoniae 503-964 = test: In vitro antibacterial activity (MIC); format: cell-based; settings: Klebsiella pneumoniae, 503964; K. pneumoniae 503-964; read-out: MIC
Procedure, shortened: as §7

S. faecalis C1 [3] = test: In vitro antibacterial activity (MIC); format: cell-based; settings: Enterococcus faecalis; S. faecalis C1; read-out: MIC
Procedure, shortened: as §7

S. typhi P58A = test: In vitro antibacterial activity (MIC); format: cell-based; settings: Salmonella enterica, TYPHI
Procedure, shortened: as §7

P. aeruginosa Stone 130 = test: In vitro antibacterial activity (MIC); format: cell-based; settings: Pseudomonas aeruginosa, STONE130, read-out: MIC
Procedure, shortened: as §7

S. marcescens 5805 = test: In vitro antibacterial activity (MIC); format: cell-based
Procedure, shortened: as §7

S. marcescens SM = test: In vitro antibacterial activity (MIC); format: cell-based; settings: Serratia marcescens, read-out: MIC
Procedure, shortened: as §7

K. pneumoniae HE7 [4] = test: In vitro antibacterial activity (MIC); format: cell-based; settings: Klebsiella pneumoniae; K. pneumoniae HE7; read-out: MIC
Procedure, shortened: as §7

P. aeruginosa 8710 [5] = test: In vitro antibacterial activity (MIC); format: cell-based; settings: Pseudomonas aeruginosa; P. aeruginosa 8710; read-out: MIC
Procedure, shortened: as §7

P. rettgeri ATCC 9250 = test: In vitro antibacterial activity (MIC); format: cell-based; settings: Providencia rettgeri, ATCC9250, P. rettgeri ATCC 9250; read-out: MIC
Procedure, shortened: as §7

E. aerogenes 83 = test: In vitro antibacterial activity (MIC); format: cell-based; settings: Klebsiella aerogenes, 83, E. aerogenes 83; read-out: MIC
Procedure, shortened: as §7

K. pneumoniae 35 = test: In vitro antibacterial activity (MIC); format: cell-based; settings: Klebsiella pneumoniae; K. pneumoniae 35; read-out: MIC
Procedure, shortened: as §7

S. marcescens S147 = test: In vitro antibacterial activity (MIC); format: cell-based; settings: Serratia marcescens; S. marcescens S147; read-out: MIC
Procedure, shortened: as §7

P. aeruginosa B = test: In vitro antibacterial activity (MIC); format: cell-based; settings: Pseudomonas aeruginosa, read-out: MIC
Procedure, shortened: as §7

E. cloacae 9295 = test: In vitro antibacterial activity (MIC); format: cell-based; settings: Enterobacter cloacae, 9295, E. cloacae 9295; read-out: MIC
Procedure, shortened: as §7

S. pyogenes 4 [6] = test: In vitro antibacterial activity (MIC); format: cell-based; settings: Streptococcus pyogenes, 4, S. pyogenes 4; read-out: MIC
Procedure, shortened: as §7

E. coli 257 [7] = test: In vitro antibacterial activity (MIC, Mueller-Hinton broth); format: cell-based; settings: Escherichia coli, 257, E. coli 257; read-out: MIC
Procedure, shortened: as §7

S. pyogenes 4 [8] = test: In vivo antibacterial activity (PD50); settings: Streptococcus pyogenes, 4, sc, read-out: PD50
K. pneumoniae HE7 [9] = test: In vivo antibacterial activity (PD50); settings: Klebsiella pneumoniae, HE7, sc, 2 treatments
P. aeruginosa 6799 = test: In vivo antibacterial activity (PD50); settings: Pseudomonas aeruginosa, 6799, sc, sc, 2 treatments, read-out: PD50
P. aeruginosa 6720 = test: In vivo antibacterial activity (PD50); settings: Pseudomonas aeruginosa, 6720, sc, 2 treatments
S. aureus Giorgio = test: In vitro antibacterial activity (MIC); format: cell-based; settings: Staphylococcus aureus, S. aureus Giorgio; read-out: MIC
Procedure, shortened: as §7

P. aeruginosa 8710 [10] = test: In vivo antibacterial activity (PD50); settings: Pseudomonas aeruginosa, 8710, sc, 2 treatments
P. aeruginosa 6719 = test: In vivo antibacterial activity (PD50); settings: Pseudomonas aeruginosa, 6719, sc
[11] = Serratia marcescens, 5805, S. marcescens 5805, read-out: MIC

Compound	ED50 (E. cloacae 4633) [mg/kg]	MIC (S. marcescens S714) [µg/mL]	MIC (S. marcescens S3) [µg/mL]	MIC (P. mirabilis 190) [µg/mL]	MIC (E. coli 387-1) [µg/mL]	MIC (K. pneumoniae 8357) [µg/mL]	MIC (P. aeruginosa 5700) [µg/mL]	MIC (K. pneumoniae 503-964) [µg/mL]	MIC (S. faecalis C1 [3]) [µg/mL]	MIC (S. typhi P58A) [µg/mL]	MIC (P. aeruginosa Stone 130) [µg/mL]	MIC (S. marcescens SM) [µg/mL]	MIC (K. pneumoniae HE7 [4]) [µg/mL]	MIC (P. aeruginosa 8710 [5]) [µg/mL]	MIC (P. rettgeri ATCC 9250) [µg/mL]	MIC (E. aerogenes 83) [µg/mL]	MIC (K. pneumoniae 35) [µg/mL]	MIC (S. marcescens S147) [µg/mL]	MIC (P. aeruginosa B) [µg/mL]	MIC (E. cloacae 9295) [µg/mL]	further results
CC1(C)S[C@@H]2[C@H](N=CN3CCC(CCCn4ccnc4N)CC3)C(=O)N2[C@H]1C(=O)O [I, [2S-(2alpha,5alpha,6beta)]-6-[[[4-[3-(2-amino-1H-imidazol-1-yl)propyl]piperidinyl]methylene]amino]-3,3-dimethyl-7-oxo-4-thia-1-azabicyclo[3.2.0]hpetane-2-carboxylic acid hydrochloride]	6.4	0.125	0.062	0.125	0.062	0.062	0.062	0.062	> 128	0.062	> 128	0.062	> 128	128	0.25	1	0.25	0.062	0.062	0.125	ED50 (S. faecalis C1 [1]; Table 9): > 250 mg/kg; ED50 (K. pneumoniae 503-990A; Table 14 line (1)): < 2 mg/kg; ED50 (K. pneumoniae 503-990A; Table 14 line (2)): < 2 mg/kg; ED50 (E. coli 257 [2]; Table 9): < 0.2 mg/kg; ED50 (S. aureus Smith; Table 9): 61 mg/kg; MIC (S. marcescens 5805; [11]): 0.25 µg/mL; MIC (S. pyogenes 4 [6]): 1 µg/mL; MIC (E. coli 257 [7]): 0.031 µg/mL; ED50 (S. pyogenes 4 [8]; sc, Table 9): 11 mg/kg
CC1(C)S[C@@H]2[C@H](N=CN3CCC(CC4=NCCN4)CC3)C(=O)N2[C@H]1C(=O)O [M, [2S-(2alpha,5alpha,6beta)]-6-[[[4-[(4,5-dihydro-1H-imidazol-2-yl)methyl]-1-piperidinyl]methylene]amino]-3,3-dimethyl-7-oxo-4-thia-1-azabicyclo[3.2.0]heptane-2-carboxylic acid hydrochloride]	34	0.5	0.125	0.5	0.062	1	0.125	0.25	32	0.062	> 128	0.125	> 128	64	0.5	2	1	0.25	0.25	0.5	ED50 (K. pneumoniae 503-990A): 9.4 mg/kg; ED50 (K. pneumoniae HE7 [9]; challenge 750 LD50s, Table 10): 71 mg/kg; ED50 (P. aeruginosa 6799; challenge 48 LD50s, Table 10): > 250 mg/kg; ED50 (P. aeruginosa 6720; challenge 3511 LD50s, Table 10): 29 mg/kg; ED50 (E. coli 257 [2]; challenge >10^4 LD50s, 1 treatment, Table 10): 1.5 mg/kg; ED50 (S. aureus Smith; challenge 48 LD50s, 2 treatments, Table 10): < 5 mg/kg; ED50 (S. aureus Smith; challenge 100 LD50s, 2 treatments, Table 10): 6.7 mg/kg; MIC (S. marcescens 5805; [11]): 1 µg/mL; MIC (S. aureus Giorgio): 2 µg/mL; MIC (S. pyogenes 4 [6]): 1 µg/mL; MIC (E. coli 257 [7]): 0.125 µg/mL; ED50 (S. pyogenes 4 [8]; sc, challenge 100 LD50s, 2 treatments, Table 10): < 2 mg/kg; ED50 (P. aeruginosa 8710 [10]; challenge 10 LD50s, Table 10, read-out: PD50): 54 mg/kg; ED50 (P. aeruginosa 8710 [10]; challenge 562 LD50s, Table 10, read-out: PD50): 59 mg/kg; ED50 (P. aeruginosa 6719; challenge 2249 LD50s, 3 treatments, Table 10): 34 mg/kg
CC1(C)S[C@@H]2[C@H](N=CN3CCC(CCC4=NCCN4)CC3)C(=O)N2[C@H]1C(=O)O [N, [2S-(2alpha,5alpha,6beta)]-6-[[[4-[4,5-dihydro-1H-imidazol-2-yl)ethyl]-1-piperidinyl]methylene]amino]-3,3-dimethyl-7-oxo-4-thia-1-azabicyclo[3.2.0]heptane-2-carboxylic acid hydrochloride]	12	0.125	0.062	0.125	0.016	0.125	0.062	0.062	64	0.031	> 128	0.062	> 128	32	0.125	8	0.125	0.062	0.062	0.125	ED50 (S. faecalis C1 [1]; challenge 10 LD50s, 1 treatment, Table 11): 62 mg/kg; ED50 (K. pneumoniae 503-990A): 5.5 mg/kg; ED50 (K. pneumoniae HE7 [9]; challenge 1000 LD50s, Table 11): > 250 mg/kg; ED50 (P. aeruginosa 6799; challenge 71 LD50s, Table 11): > 250 mg/kg; ED50 (P. aeruginosa 6720; challenge 35 LD50s, Table 11): 20 mg/kg; ED50 (E. coli 257 [2]; challenge >10^4 LD50s, 1 treatment, Table 11): < 1 mg/kg; ED50 (S. aureus Smith; challenge 70 LD50s, 2 treatments, Table 11): 12 mg/kg; MIC (S. marcescens 5805; Serratia marcescens, 5805): 0.25 µg/mL; MIC (S. pyogenes 4 [6]): 1 µg/mL; MIC (E. coli 257 [7]): 0.031 µg/mL; ED50 (S. pyogenes 4 [8]): 4.3 mg/kg; ED50 (P. aeruginosa 8710 [10]; challenge >10^4 LD50s, Table 11, read-out: PD50): 50 mg/kg; ED50 (P. aeruginosa 6719; challenge 2290 LD50s, 2 treatments, Table 11): 22 mg/kg

Source: patent US4605744A, “Imidazole derivatives” (Hoffmann-La Roche Inc., priority 1985, dated 1986)
